Laboratory results: ChEMBL document CHEMBL4840380, “The Psychedelic Renaissance: Addressing Potential Adverse Effects in a Therapeutic Setting” (ACS Med Chem Lett, 2021)

What was measured:
[1] = target: 5-hydroxytryptamine receptor 2A (Homo sapiens) (UniProt P28223); assay: Agonist activity at 5HT2A receptor (unknown origin) expressed in HEK293 cells assessed as maximal effect by FLIPR calcium flux assay relative to control; assay type: functional, cell-based; conditions: filed as agonist
Mus musculus = assay: Antipsychotic activity in sc dosed C57BL/6 mouse assessed as DOI-induced head twitching observed for 20 mins; assay type: functional, organism-based; conditions: dose 1-100 mg/kg

Sequence of 5-hydroxytryptamine receptor 2A (Homo sapiens) (P28223 whole entry): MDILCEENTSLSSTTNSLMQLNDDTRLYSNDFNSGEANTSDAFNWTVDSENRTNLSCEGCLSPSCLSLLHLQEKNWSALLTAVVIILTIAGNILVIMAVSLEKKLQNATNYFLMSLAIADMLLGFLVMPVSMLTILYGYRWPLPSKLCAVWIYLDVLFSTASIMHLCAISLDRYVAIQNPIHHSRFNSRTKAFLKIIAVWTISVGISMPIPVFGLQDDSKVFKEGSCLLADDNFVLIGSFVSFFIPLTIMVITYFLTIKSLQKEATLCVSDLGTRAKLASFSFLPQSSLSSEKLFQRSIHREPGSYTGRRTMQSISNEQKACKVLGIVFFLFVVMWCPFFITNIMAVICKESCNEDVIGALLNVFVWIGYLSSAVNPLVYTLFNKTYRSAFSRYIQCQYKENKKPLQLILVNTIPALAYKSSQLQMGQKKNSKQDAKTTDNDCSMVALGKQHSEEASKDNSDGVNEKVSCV

SMILES	Emax [1] [%]	Activity (Mus musculus)
CCN(C)CCc1c[nH]c2ccc(F)cc12	87.6	Dose-Dependent Effect
CN(C)CCc1c[nH]c2ccccc12	93.4	–
CCCN(CC)CCc1c[nH]c2ccc(F)cc12	104	Dose-Dependent Effect
